Several values for one entry are separate records, joined by “and”; a condition that tells them apart may be missing. Equal values may be shown once.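 Test compounds were applied to cells in 96-well plates for 48 hours at 5 doses. GI50 = concentration required for 50% inhibition of growth. TGI marks complete inhibition of growth.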
Test system: BT-549 breast
Assay: NCI tumour cell line growth inhibition, 48 h

Compound	TGI
O=c1[nH]c(=O)n([C@H]2CCCO2)cc1F	> 5000 µM
CC1=C(C(=O)Nc2ccccc2)C(c2ccc(C3C(C(=O)Nc4ccccc4)=C(C)NC(C)=C3C(=O)Nc3ccccc3)cc2)C(C(=O)Nc2ccccc2)=C(C)N1	8.67 µM

Test system: DLD-1 colon
Assay: NCI tumour cell line growth inhibition, 48 h

Compound	TGI	GI50
Cc1cccc(C(C)C)c1NC(=O)C(=O)C(C(=O)c1ccccc1F)C1OC(=O)c2ccccc21 (configuration not stated)	30.8 µM	
CC1=C(c2cc(C(=O)Nc3ccc(Cl)cc3)nc(=S)[nH]2)Sc2ccccc2N1	> 100 µM	
O=C(O)CN(c1ccccc1)S(=O)(=O)c1ccc([N+](=O)[O-])cc1	> 100 µM	
CC1=C(C(=O)NNS(=O)(=O)c2ccc(C)cc2)CC(C(=O)NNS(=O)(=O)c2ccc(C)cc2)=C(C)N1	> 100 µM	
[F][Sn]([F])([c]1ccccc1)[c]1ccccc1	3.47 µM	1.88 µM
N#CC(C(=O)CCC(=O)Nc1cccc(C(F)(F)F)c1)c1ccc(Cl)cc1 (configuration not stated)	> 100 µM	
COC(=O)c1cccc2cccc(C(=O)Nc3ccc(Cl)cc3)c12	> 62.5 µM	
CC(C)(C)OC(=O)N1N=NC2C1C1CC(OCc3ccccc3)(OCc3ccccc3)C2O1 (configuration not stated)	> 100 µM	
O=C1C(=O)N(c2cc(Cl)ccc2Cl)C(=O)C(=O)C1c1nc2ccccc2o1	> 100 µM	
CC1=C(C(=O)Nc2ccccc2)C(c2ccc(C3C(C(=O)Nc4ccccc4)=C(C)NC(C)=C3C(=O)Nc3ccccc3)cc2)C(C(=O)Nc2ccccc2)=C(C)N1	8.15 µM	
CCOC(=O)/C(=C/c1cccc(C#N)c1)N(CC)CC	> 100 µM	
COc1cc(C2C(C(=O)Nc3cc(F)c(F)cc3F)=C(C)NC(C)=C2C(=O)Nc2cc(F)c(F)cc2F)ccc1O	> 100 µM	
CCOc1ccccc1NC(=O)C(=O)Cc1nc2ccccc2s1	> 100 µM	
O=C(O)CSc1n[nH]c(Cc2ccccc2)n1	> 100 µM	
CCOc1ccccc1NC(=O)C(C#N)C1=C(Cl)C(=O)c2ccccc2C1=O (configuration not stated)	3.31 µM and 4.27 µM	2.14 µM

Test system: DMS 273 small cell lung
Assay: NCI tumour cell line growth inhibition, 48 h

Compound	TGI	GI50
Cc1cccc(C(C)C)c1NC(=O)C(=O)C(C(=O)c1ccccc1F)C1OC(=O)c2ccccc21 (configuration not stated)	44.3 µM	
CC1=C(c2cc(C(=O)Nc3ccc(Cl)cc3)nc(=S)[nH]2)Sc2ccccc2N1	> 100 µM	
O=C(O)CN(c1ccccc1)S(=O)(=O)c1ccc([N+](=O)[O-])cc1	> 100 µM	
[F][Sn]([F])([c]1ccccc1)[c]1ccccc1	5.26 µM	2.17 µM
N#CC(C(=O)CCC(=O)Nc1cccc(C(F)(F)F)c1)c1ccc(Cl)cc1 (configuration not stated)	> 100 µM	
COC(=O)c1cccc2cccc(C(=O)Nc3ccc(Cl)cc3)c12	22.2 µM	
CC(C)(C)OC(=O)N1N=NC2C1C1CC(OCc3ccccc3)(OCc3ccccc3)C2O1 (configuration not stated)	> 100 µM	
O=C1C(=O)N(c2cc(Cl)ccc2Cl)C(=O)C(=O)C1c1nc2ccccc2o1	> 100 µM	
CC1=C(C(=O)Nc2ccccc2)C(c2ccc(C3C(C(=O)Nc4ccccc4)=C(C)NC(C)=C3C(=O)Nc3ccccc3)cc2)C(C(=O)Nc2ccccc2)=C(C)N1	7.24 µM	
CCOc1ccccc1NC(=O)C(=O)Cc1nc2ccccc2s1	> 100 µM	
CCOc1ccccc1NC(=O)C(C#N)C1=C(Cl)C(=O)c2ccccc2C1=O (configuration not stated)	3.35 µM and 3.47 µM	

Test system: HOP-18 NSCLC
Assay: NCI tumour cell line growth inhibition, 48 h

Compound	TGI	GI50
Cc1cccc(C(C)C)c1NC(=O)C(=O)C(C(=O)c1ccccc1F)C1OC(=O)c2ccccc21 (configuration not stated)	32.4 µM	
CC1=C(c2cc(C(=O)Nc3ccc(Cl)cc3)nc(=S)[nH]2)Sc2ccccc2N1	> 100 µM	
O=C(O)CN(c1ccccc1)S(=O)(=O)c1ccc([N+](=O)[O-])cc1	> 100 µM	
CC1=C(C(=O)NNS(=O)(=O)c2ccc(C)cc2)CC(C(=O)NNS(=O)(=O)c2ccc(C)cc2)=C(C)N1	> 100 µM	
[F][Sn]([F])([c]1ccccc1)[c]1ccccc1	3.59 µM	2.08 µM
N#CC(C(=O)CCC(=O)Nc1cccc(C(F)(F)F)c1)c1ccc(Cl)cc1 (configuration not stated)	> 100 µM	
COC(=O)c1cccc2cccc(C(=O)Nc3ccc(Cl)cc3)c12	> 100 µM	
CC(C)(C)OC(=O)N1N=NC2C1C1CC(OCc3ccccc3)(OCc3ccccc3)C2O1 (configuration not stated)	> 100 µM	
O=C1C(=O)N(c2cc(Cl)ccc2Cl)C(=O)C(=O)C1c1nc2ccccc2o1	> 100 µM	
CC1=C(C(=O)Nc2ccccc2)C(c2ccc(C3C(C(=O)Nc4ccccc4)=C(C)NC(C)=C3C(=O)Nc3ccccc3)cc2)C(C(=O)Nc2ccccc2)=C(C)N1	21.7 µM	
CCOC(=O)/C(=C/c1cccc(C#N)c1)N(CC)CC	> 100 µM	
CCOc1ccccc1NC(=O)C(=O)Cc1nc2ccccc2s1	> 100 µM	
O=C(O)CSc1n[nH]c(Cc2ccccc2)n1	> 100 µM	
CCOc1ccccc1NC(=O)C(C#N)C1=C(Cl)C(=O)c2ccccc2C1=O (configuration not stated)	2.85 µM	

Test system: HS 578T breast
Assay: NCI tumour cell line growth inhibition, 48 h

Compound	TGI
O=c1[nH]c(=O)n([C@H]2CCCO2)cc1F	> 4650 µM
CC1=C(C(=O)Nc2ccccc2)C(c2ccc(C3C(C(=O)Nc4ccccc4)=C(C)NC(C)=C3C(=O)Nc3ccccc3)cc2)C(C(=O)Nc2ccccc2)=C(C)N1	16.2 µM

Test system: LXFL 529 NSCLC
Assay: NCI tumour cell line growth inhibition, 48 h

Compound	TGI	GI50
Cc1cccc(C(C)C)c1NC(=O)C(=O)C(C(=O)c1ccccc1F)C1OC(=O)c2ccccc21 (configuration not stated)	27.4 µM	
CC1=C(c2cc(C(=O)Nc3ccc(Cl)cc3)nc(=S)[nH]2)Sc2ccccc2N1	> 100 µM	
O=C(O)CN(c1ccccc1)S(=O)(=O)c1ccc([N+](=O)[O-])cc1	> 100 µM	
CC1=C(C(=O)NNS(=O)(=O)c2ccc(C)cc2)CC(C(=O)NNS(=O)(=O)c2ccc(C)cc2)=C(C)N1	> 100 µM	
[F][Sn]([F])([c]1ccccc1)[c]1ccccc1	2.08 µM	0.815 µM
N#CC(C(=O)CCC(=O)Nc1cccc(C(F)(F)F)c1)c1ccc(Cl)cc1 (configuration not stated)	> 100 µM	
COC(=O)c1cccc2cccc(C(=O)Nc3ccc(Cl)cc3)c12	> 100 µM	
CC(C)(C)OC(=O)N1N=NC2C1C1CC(OCc3ccccc3)(OCc3ccccc3)C2O1 (configuration not stated)	35 µM	
O=C1C(=O)N(c2cc(Cl)ccc2Cl)C(=O)C(=O)C1c1nc2ccccc2o1	> 100 µM	
CC1=C(C(=O)Nc2ccccc2)C(c2ccc(C3C(C(=O)Nc4ccccc4)=C(C)NC(C)=C3C(=O)Nc3ccccc3)cc2)C(C(=O)Nc2ccccc2)=C(C)N1	5.34 µM	
CCOC(=O)/C(=C/c1cccc(C#N)c1)N(CC)CC	> 100 µM	
COc1cc(C2C(C(=O)Nc3cc(F)c(F)cc3F)=C(C)NC(C)=C2C(=O)Nc2cc(F)c(F)cc2F)ccc1O	> 100 µM	
CCOc1ccccc1NC(=O)C(=O)Cc1nc2ccccc2s1	> 100 µM	
O=C(O)CSc1n[nH]c(Cc2ccccc2)n1	> 100 µM	
CCOc1ccccc1NC(=O)C(C#N)C1=C(Cl)C(=O)c2ccccc2C1=O (configuration not stated)	3.25 µM and 3.16 µM	

Test system: MDA-MB-435
Assay: NCI tumour cell line growth inhibition, 48 h

Compound	GI50	TGI
O=c1[nH]c(=O)n([C@H]2CCCO2)cc1F	1350 µM	> 5000 µM
CC1=C(C(=O)Nc2ccccc2)C(c2ccc(C3C(C(=O)Nc4ccccc4)=C(C)NC(C)=C3C(=O)Nc3ccccc3)cc2)C(C(=O)Nc2ccccc2)=C(C)N1		5.83 µM

Test system: MDA-N
Assay: NCI tumour cell line growth inhibition, 48 h

Compound	GI50	TGI
O=c1[nH]c(=O)n([C@H]2CCCO2)cc1F	357 µM	> 5000 µM
CC1=C(C(=O)Nc2ccccc2)C(c2ccc(C3C(C(=O)Nc4ccccc4)=C(C)NC(C)=C3C(=O)Nc3ccccc3)cc2)C(C(=O)Nc2ccccc2)=C(C)N1		14.5 µM

Test system: P388 leukemia
Assay: NCI tumour cell line growth inhibition, 48 h

Compound	TGI
O=c1[nH]c(=O)n([C@H]2CCCO2)cc1F	565 µM

Test system: RXF-631 renal
Assay: NCI tumour cell line growth inhibition, 48 h

Compound	TGI	GI50
Cc1cccc(C(C)C)c1NC(=O)C(=O)C(C(=O)c1ccccc1F)C1OC(=O)c2ccccc21 (configuration not stated)	60.3 µM	
CC1=C(c2cc(C(=O)Nc3ccc(Cl)cc3)nc(=S)[nH]2)Sc2ccccc2N1	> 100 µM	
O=C(O)CN(c1ccccc1)S(=O)(=O)c1ccc([N+](=O)[O-])cc1	> 100 µM	
CC1=C(C(=O)NNS(=O)(=O)c2ccc(C)cc2)CC(C(=O)NNS(=O)(=O)c2ccc(C)cc2)=C(C)N1	> 100 µM	
[F][Sn]([F])([c]1ccccc1)[c]1ccccc1	6.01 µM	2.3 µM
N#CC(C(=O)CCC(=O)Nc1cccc(C(F)(F)F)c1)c1ccc(Cl)cc1 (configuration not stated)	> 100 µM	
COC(=O)c1cccc2cccc(C(=O)Nc3ccc(Cl)cc3)c12	> 100 µM	
CC(C)(C)OC(=O)N1N=NC2C1C1CC(OCc3ccccc3)(OCc3ccccc3)C2O1 (configuration not stated)	> 100 µM	
O=C1C(=O)N(c2cc(Cl)ccc2Cl)C(=O)C(=O)C1c1nc2ccccc2o1	> 100 µM	
CCOC(=O)/C(=C/c1cccc(C#N)c1)N(CC)CC	> 100 µM	
COc1cc(C2C(C(=O)Nc3cc(F)c(F)cc3F)=C(C)NC(C)=C2C(=O)Nc2cc(F)c(F)cc2F)ccc1O	37.9 µM	
CCOc1ccccc1NC(=O)C(=O)Cc1nc2ccccc2s1	> 100 µM	
O=C(O)CSc1n[nH]c(Cc2ccccc2)n1	> 100 µM	
CCOc1ccccc1NC(=O)C(C#N)C1=C(Cl)C(=O)c2ccccc2C1=O (configuration not stated)	4.03 µM and 26.2 µM	6.8 µM

Source: PubChem BioAssay (NCI)
